From ChEMBL document CHEMBL5113432, “Discovery of novel indole and indoline derivatives against Candida albicans as potent antifungal agents” (Bioorg Med Chem Lett, 2022) come the findings set out here.

Molecules are shown by their SMILES. Activity calls are given as the source filed them. The rule behind the calls is not given here. Where only a bound is given, the exact number is not on record here.

Series [1] concerns Candida albicans. In words: Antifungal activity against fluconazole-resistant Candida albicans ATCC10231FR assessed as inhibition of fungal growth by microdilution method. The class given is functional, organism-based.
The test system of series [2] is Candida albicans. In words: Antifungal activity against clinical strain Candida albicans CA4574 assessed as inhibition of fungal growth by microdilution method. The class given is functional, organism-based.
Series [3] has as its system Candida albicans. In words: Antifungal activity against Candida albicans assessed as downregulation of HWP1 by RT-PCR analysis. Type of series: functional, organism-based.
Series [4] deals with Candida albicans. In words: Antifungal activity against Candida albicans assessed as downregulation of EFG1 by RT-PCR analysis. The class given is functional, organism-based.
The subject of series [5] is Candida albicans. Description: Antifungal activity against Candida albicans assessed as inhibition of fungal growth at 18 to 72 ug/ml and measured upto 96 hrs by microdilution method. Type of series: functional, organism-based. The settings on record: dose 18-72 µg/ml, DDE = dose-dependent effect.
Series [6] has as its system Candida albicans. In words: Antifungal activity against Candida albicans assessed as downregulation of ALS3 by RT-PCR analysis. The class given is functional, organism-based.
The test system of series [7] is Candida albicans. Description: Antifungal activity against Candida albicans assessed as inhibition of fungal growth at 18 to 72 ug/ml and measured 4 to 96 hrs by microdilution method. The following applies: dose 18-72 µg/ml, time 4-96 hrs, TDE = time-dependent effect. The class given is functional, organism-based.
Series [8] relates to Candida albicans. In words: Antifungal activity against Candida albicans assessed as inhibition of biofilm formation at 18 to 72 ug/ml incubated for 24 hrs by crystal violet staining based method. The class given is functional, organism-based. The following applies: dose 18-72 µg/ml.
Series [9] relates to Candida albicans. In words: Antifungal activity against Candida albicans assessed as inhibition of hyphae formation in Spider medium at 18 to 72 ug/ml and measured upto 8 hrs by scanning electron microscopy. Type of series: functional, organism-based. The following applies: dose 18-72 µg/ml, DDE = dose-dependent effect.
Series [10] relates to Candida albicans. Description: Antifungal activity against Candida albicans assessed as decrease in filamentous hyphae length in Spider medium at 36 to 72 ug/ml by scanning electron microscopy. Type of series: functional, organism-based. The settings on record: dose 36-72 µg/ml.
Series [11] deals with Candida albicans. In words: Antifungal activity against Candida albicans assessed as downregulation of CYR1 by RT-PCR analysis. Type of series: functional, organism-based.
The subject of series [12] is Candida albicans. Description: Antifungal activity against fluconazole-sensitive Candida albicans SC5314 assessed as inhibition of fungal growth by microdilution method. Type of series: functional, organism-based.
Series [13] deals with Candida albicans. In words: Antifungal activity against Candida albicans assessed as downregulation of ECE1 by RT-PCR analysis. The class given is functional, organism-based.
A short description of series [14]: Cytotoxicity against human 16HBE14o- assessed as inhibition of cell growth incubated for 24 hrs. Type of series: toxicity, cell-based. The following applies: 16HBE14o- cells.
In series [15] the test system is Candida albicans. In words: Antifungal activity against fluconazole-resistant Candida albicans SC5314FR assessed as inhibition of fungal growth by microdilution method. The class given is functional, organism-based.
Series [16] has as its system Candida albicans. In words: Antifungal activity against clinical strain Candida albicans CA808 assessed as inhibition of fungal growth by microdilution method. Type of series: functional, organism-based.
Series [17] deals with Candida albicans. Description: Antifungal activity against Candida albicans assessed as downregulation of RAS1 by RT-PCR analysis. The class given is functional, organism-based.
Series [18] concerns Candida albicans. Description: Antifungal activity against clinical strain Candida albicans CA187 assessed as inhibition of fungal growth by microdilution method. The class given is functional, organism-based.
Series [19] has as its system Candida albicans. Description: Antifungal activity against Candida albicans assessed as inhibition of hyphae formation in Spider medium at 18 to 72 ug/ml and measured for 4 to 8 hrs by scanning electron microscopy. The class given is functional, organism-based. The settings on record: dose 18-72 µg/ml, time 4-8 hrs, TDE = time-dependent effect.
Series [20] has as its system Candida albicans. Description: Antifungal activity against clinical strain Candida albicans CA23 assessed as inhibition of fungal growth by microdilution method. Type of series: functional, organism-based.
Series [21] relates to Candida albicans. Description: Antifungal activity against fluconazole-sensitive Candida albicans ATCC10231 assessed as inhibition of fungal growth by microdilution method. The class given is functional, organism-based.

`O=C(CCn1ccc2ccccc21)NCCNS(=O)(=O)c1cc(Br)ccc1O`: the IC50 in the series on Candida albicans [1] was above 200 µg/mL.

With `CCN(CC)c1ccc(S(=O)(=O)NCCNC(=O)CCn2ccc3ccccc32)c(O)c1`, the IC50 in the series with Candida albicans [1] is above 200 µg/mL.

With `O=C(CCn1ccc2ccccc21)NCC/N=C/c1ccc(OCc2ccccc2)cc1O`, the IC50 with Candida albicans [1] turned out to be 18 µg/mL.

As for `O=C(CCn1ccc2ccccc21)NCC/N=C/c1ccc(Cl)c(C(F)(F)F)c1`, the IC50 in the series on Candida albicans [1] stood at 24 µg/mL.

For `COc1cc(O)c(/C=N/CCNC(=O)CCn2ccc3ccccc32)c(OC)c1`, in the series on Candida albicans [1], the IC50 is 86 µg/mL.

`O=C(CCn1ccc2ccccc21)NCCNS(=O)(=O)c1ccc(OC(F)(F)F)cc1`: in the series with Candida albicans [1], the half-maximal inhibitory concentration (IC50) was above 200 µg/mL.

Turning to `O=C(CCn1ccc2ccccc21)NCCNS(=O)(=O)c1cc(Cl)cc(Br)c1O`, the IC50 in the series with Candida albicans [1] was above 200 µg/mL.

Regarding `O=C(CCn1ccc2ccccc21)NCCNS(=O)(=O)c1ccc(OCc2ccccc2)cc1O`, the 50% inhibitory concentration (IC50) in the series on Candida albicans [1] was above 200 µg/mL.

Take `O=C(CCn1ccc2ccccc21)NCCNS(=O)(=O)c1cc(Cl)c(F)cc1F`: in the series with Candida albicans [1], the half-inhibitory concentration (IC50) is above 200 µg/mL.

Turning to `CCN(CC)c1ccc(/C=N/CCNC(=O)CCn2ccc3ccccc32)c(O)c1`, the IC50 in the series on Candida albicans [2] was 74 µg/mL; in the series with Candida albicans [1], 21 µg/mL; with Candida albicans [12] it was 22 µg/mL; in the series with Candida albicans [15] it was 75 µg/mL; in the series on Candida albicans [16] it was 78 µg/mL; with Candida albicans [18], 39 µg/mL. Also, the IC50 with Candida albicans [20] was found to be 20 µg/mL; in the series with Candida albicans [21] it was 19 µg/mL. The result in the series on Candida albicans [3], in the series on Candida albicans [4], in the series on Candida albicans [6], in the series on Candida albicans [10], with Candida albicans [11] and in the series on Candida albicans [13] was Active. In the series with Candida albicans [17], the result was Active. For the same compound, the inhibition entry in the series on Candida albicans [5] is “Dde”; in the series with Candida albicans [7], “Tde”; in the series on Candida albicans [9] it was “Dde”; in the series with Candida albicans [19], “Tde”. In addition, the inhibition result in the series with Candida albicans [8] was “Active”. Besides, the CC50 at 24 h in [14] was above 200 µg/mL.

As to `O=C(CCn1ccc2ccccc21)NCC/N=C/c1ccc(OC(F)(F)F)cc1`, in the series with Candida albicans [1], the concentration for half-maximal inhibition (IC50) was 29 µg/mL.

Take `OC(Cn1cncn1)(Cn1cncn1)c1ccc(F)cc1F` [FLUCONAZOLE]: the half-maximal inhibitory concentration (IC50) with Candida albicans [2] was 1.2 µg/mL; in the series with Candida albicans [1], above 200 µg/mL; in the series with Candida albicans [12], 1.3 µg/mL; with Candida albicans [15], above 200 µg/mL; with Candida albicans [16], above 200 µg/mL; in the series with Candida albicans [18] it was above 200 µg/mL. In addition, the IC50 was above 200 µg/mL in the series on Candida albicans [20] and 10 µg/mL with Candida albicans [21].

With `O=C(CCn1ccc2ccccc21)NCC/N=C/c1ccc(Br)cc1`, the half-maximal inhibitory concentration (IC50) in the series with Candida albicans [1] is above 200 µg/mL.

Take `O=C(CCn1ccc2ccccc21)NCCNS(=O)(=O)c1ccc(F)c(C(F)(F)F)c1`: the IC50 with Candida albicans [1] is above 200 µg/mL.

Turning to `O=C(CCn1ccc2ccccc21)NCCNS(=O)(=O)c1ccc(Br)cc1`, the half-maximal inhibitory concentration (IC50) with Candida albicans [1] is above 200 µg/mL.

For `O=C(CCn1ccc2ccccc21)NCC/N=C/c1cc(Cl)c(F)cc1F`, in the series with Candida albicans [1], the IC50 was above 200 µg/mL.

For the compound `COc1ccc(O)c(/C=N/CCNC(=O)CCn2ccc3ccccc32)c1`, in the series with Candida albicans [1], the IC50 was above 200 µg/mL.

Turning to `Cc1ccc(S(=O)(=O)NCCNC(=O)CCn2ccc3ccccc32)cc1`, the IC50 in the series on Candida albicans [1] is above 200 µg/mL.

As to `O=C(CCn1ccc2ccccc21)NCC/N=C/c1ccc(F)c(C(F)(F)F)c1`, in the series on Candida albicans [1], the IC50 is above 200 µg/mL.

Take `O=C(CCn1ccc2ccccc21)NCCNS(=O)(=O)c1cc([N+](=O)[O-])ccc1O`: in the series with Candida albicans [1], the half-inhibitory concentration (IC50) was above 200 µg/mL.
